Holding throughout (assay type): functional
The target in test [1] is T1, Sentrin-specific protease 6 (Homo sapiens, UniProt Q9GZR1).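 Further: Luminescence-based dose-response confirmatory assay of SENP6 inhibition, following up an ultra-high-throughput screen.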
T1 sequence (Q9GZR1 whole entry): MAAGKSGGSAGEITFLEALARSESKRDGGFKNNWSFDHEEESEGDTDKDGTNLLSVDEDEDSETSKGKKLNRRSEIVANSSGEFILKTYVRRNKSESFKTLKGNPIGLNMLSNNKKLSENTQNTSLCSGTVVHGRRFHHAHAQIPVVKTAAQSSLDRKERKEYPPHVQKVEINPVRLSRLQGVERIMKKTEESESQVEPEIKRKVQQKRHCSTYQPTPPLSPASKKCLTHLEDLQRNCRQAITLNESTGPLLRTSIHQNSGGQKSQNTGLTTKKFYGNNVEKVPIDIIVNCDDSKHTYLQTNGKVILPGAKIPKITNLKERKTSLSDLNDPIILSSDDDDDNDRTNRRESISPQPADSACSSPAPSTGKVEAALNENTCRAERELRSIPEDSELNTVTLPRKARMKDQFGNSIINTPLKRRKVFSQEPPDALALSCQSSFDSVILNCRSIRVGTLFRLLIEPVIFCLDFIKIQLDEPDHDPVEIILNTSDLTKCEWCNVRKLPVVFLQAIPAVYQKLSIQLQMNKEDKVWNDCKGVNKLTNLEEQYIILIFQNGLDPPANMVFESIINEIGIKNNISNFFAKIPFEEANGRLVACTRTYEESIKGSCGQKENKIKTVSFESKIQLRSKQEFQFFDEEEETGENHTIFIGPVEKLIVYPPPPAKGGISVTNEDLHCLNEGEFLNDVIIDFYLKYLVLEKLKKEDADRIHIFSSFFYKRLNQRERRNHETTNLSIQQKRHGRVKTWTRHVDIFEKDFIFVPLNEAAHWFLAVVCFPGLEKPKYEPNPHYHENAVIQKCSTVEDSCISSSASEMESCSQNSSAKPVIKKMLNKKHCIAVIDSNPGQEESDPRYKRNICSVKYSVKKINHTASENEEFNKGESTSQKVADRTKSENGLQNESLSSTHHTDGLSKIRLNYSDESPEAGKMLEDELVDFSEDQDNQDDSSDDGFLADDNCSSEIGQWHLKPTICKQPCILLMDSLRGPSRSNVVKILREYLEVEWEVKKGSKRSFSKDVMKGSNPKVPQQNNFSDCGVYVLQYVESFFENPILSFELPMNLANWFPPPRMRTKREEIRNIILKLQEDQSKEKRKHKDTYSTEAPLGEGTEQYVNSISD

The target in test [2] is T2, Sentrin-specific protease 7 (Homo sapiens, UniProt Q9BQF6).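 Further: Luminescence-based dose-response confirmation of ultra-high-throughput screening hits, measuring inhibition of SENP7.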
T2 sequence (Q9BQF6 whole entry): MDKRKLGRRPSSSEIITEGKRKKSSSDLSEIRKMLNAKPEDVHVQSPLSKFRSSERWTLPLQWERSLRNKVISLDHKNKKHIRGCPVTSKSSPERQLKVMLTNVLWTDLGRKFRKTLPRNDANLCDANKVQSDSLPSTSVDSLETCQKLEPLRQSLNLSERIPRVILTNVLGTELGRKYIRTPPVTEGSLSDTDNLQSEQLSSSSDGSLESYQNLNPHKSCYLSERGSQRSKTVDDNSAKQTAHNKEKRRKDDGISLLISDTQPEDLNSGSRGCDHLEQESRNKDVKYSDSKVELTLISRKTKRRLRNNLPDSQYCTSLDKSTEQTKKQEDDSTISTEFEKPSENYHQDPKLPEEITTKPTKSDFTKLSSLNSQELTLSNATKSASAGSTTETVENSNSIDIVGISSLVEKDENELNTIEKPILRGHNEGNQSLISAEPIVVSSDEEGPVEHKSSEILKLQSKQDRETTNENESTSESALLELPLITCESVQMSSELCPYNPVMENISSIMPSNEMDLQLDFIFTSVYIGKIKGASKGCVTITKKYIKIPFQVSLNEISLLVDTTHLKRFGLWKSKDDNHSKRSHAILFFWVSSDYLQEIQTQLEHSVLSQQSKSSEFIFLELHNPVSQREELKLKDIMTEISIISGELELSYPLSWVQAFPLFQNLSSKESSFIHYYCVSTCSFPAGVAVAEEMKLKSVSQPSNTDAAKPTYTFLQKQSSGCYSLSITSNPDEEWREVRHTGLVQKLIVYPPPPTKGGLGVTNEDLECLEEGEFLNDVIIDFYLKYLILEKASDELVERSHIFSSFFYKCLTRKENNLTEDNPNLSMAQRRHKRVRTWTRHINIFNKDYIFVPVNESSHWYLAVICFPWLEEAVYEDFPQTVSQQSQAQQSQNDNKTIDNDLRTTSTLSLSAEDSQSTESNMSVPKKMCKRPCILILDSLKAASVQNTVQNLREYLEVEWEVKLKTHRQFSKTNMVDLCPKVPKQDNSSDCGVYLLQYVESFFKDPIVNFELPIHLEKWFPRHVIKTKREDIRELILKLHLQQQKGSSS

A further test deals with T3, Protein RecA (Mycobacterium tuberculosis, UniProt P9WHJ3).
T3 sequence (P9WHJ3 whole entry): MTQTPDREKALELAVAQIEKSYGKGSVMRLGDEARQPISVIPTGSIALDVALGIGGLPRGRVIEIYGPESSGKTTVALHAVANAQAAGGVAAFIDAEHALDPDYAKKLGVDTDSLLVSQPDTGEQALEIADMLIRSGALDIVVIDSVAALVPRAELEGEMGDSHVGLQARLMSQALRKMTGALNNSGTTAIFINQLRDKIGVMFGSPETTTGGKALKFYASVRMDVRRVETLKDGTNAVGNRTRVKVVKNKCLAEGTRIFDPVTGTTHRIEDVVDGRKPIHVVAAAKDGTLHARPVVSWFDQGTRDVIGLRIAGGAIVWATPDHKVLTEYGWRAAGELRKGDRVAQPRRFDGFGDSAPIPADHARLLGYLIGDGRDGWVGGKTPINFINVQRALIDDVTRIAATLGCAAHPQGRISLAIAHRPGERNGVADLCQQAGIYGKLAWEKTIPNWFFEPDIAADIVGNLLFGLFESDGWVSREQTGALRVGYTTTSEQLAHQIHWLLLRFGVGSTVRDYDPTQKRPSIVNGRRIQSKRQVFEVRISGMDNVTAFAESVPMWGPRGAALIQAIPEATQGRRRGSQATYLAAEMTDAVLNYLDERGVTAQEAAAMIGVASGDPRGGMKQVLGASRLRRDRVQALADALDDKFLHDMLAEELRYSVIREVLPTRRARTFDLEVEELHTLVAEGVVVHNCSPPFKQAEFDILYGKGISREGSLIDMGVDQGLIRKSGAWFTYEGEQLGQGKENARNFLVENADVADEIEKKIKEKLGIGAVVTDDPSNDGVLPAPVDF
The test can be described thus: Fluorescence Cell-Free Homogeneous Dose Retest to Identify Inhibitors of RecA-Intein Splicing Activity. [Related pubchem assays (depositor defined):AID2097, AID2223, AID489010, AID492950].

SMILES strings stand for the structures. Calls of active or inactive are those of the source. For most assays here, no stated cut-off is given here; in the data, actives have a measured IC50 and inactives only a lower limit.

For orientation: IC50 means the point on the concentration scale where inhibition reaches its midpoint. `CCCOc1cc2c(C#N)c(N3CCCC3)nc(N)c2c(N)n1`: the IC50 in test [1] is 3.96 µM (active); in test [2], 4.45 µM (active).

By EC50 is commonly meant the concentration giving half of the maximal effect. For `Cc1cc2nc3ccc(N(C)C)cc3[s+]c2cc1N` [TOLONIUM CHLORIDE], at Protein RecA, the EC50 is 28 µM (active).

For the origin of these results see ChEMBL document CHEMBL1201862, “PubChem BioAssay data set” (2004).
